Reference: the NIST ThermoML archive (doi:10.1021/je400830w)

What was measured:
[1] = 100 kPa, Liquid; for viscosity: Falling or rolling sphere viscometry; for mass density: Vibrating tube method
[2] = refractive index (Na D-line) (dimensionless); conditions: 100 kPa, Liquid, Standard Abbe refractometry

NCCO [2-aminoethan-1-ol]
Conditions	mass density, [1] [kg/m3]	refractive index, [2]	viscosity, [1] [mPa·s]
298.15 K	1012.38	1.45406	18.89
303.15 K	1009.35	1.45241	15.11
313.15 K	1002.16	1.449	10.03
323.15 K	994.4	1.44522	6.983
333.15 K	986.24	1.44198	4.972
